Source: US20250129070A1, “BIFUNCTIONAL ANDROGEN RECEPTOR COMPOUNDS” (priority 2023, published 2025)

Columns and labels:
Assay type in all cases: cell-based
VCaP cells = test: VCaP growth inhibition assay; settings: 30 pM R1881, 9 days, CTG
Procedure, shortened: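 VCaP cells in phenol red-free DMEM/5% CSS, pre-incubated 72 h, then stimulated with R1881 (final 30 pM) and treated with 1:5 serial dilutions (final 100 nM to 10 fM) for 9 days at 37 °C. Viability by CellTiter-Glo luminescence; IC50 from 4-parameter logistic fit of RLU vs concentration.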

HEK-293 cells = test: HEK-293 growth inhibition assay; settings: 3 days, CTG
Procedure, shortened: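 HEK-293 cells plated 24 hours before compound treatment, then exposed for 3 days at 37°C/5% CO2. Viability by CellTiter-Glo luminescence after 20 minutes at room temperature. IC50 from RLU versus concentration via 4-parameter logistic nonlinear regression.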

AR / CBP ternary complex = test: Ternary complex formation assay (sandwich ELISA, AR capture / CBP detection) in VCaP cell lysates; settings: 1.5 hours treatment, sandwich ELISA (AR capture, CBP or p300 detection)
Procedure, shortened: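 VCaP cells (50K/well, 5% charcoal-stripped FBS, ≥3 days) treated with bifunctional compound for 1.5 h, then lysed 30 min at 4 °C. AR captured on anti-AR (AR 441) plates; bound CBP or p300 detected by rabbit mAb plus HRP secondary. QuantaRed chemifluorescence read at ex 570/em 585, immediately and at 5 and 15 min.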

`CC(=O)N1CCc2c(c(N3CCCc4cc(-c5cnn(C)c5)c(C(F)F)cc43)nn2C2CCN(C(=O)CC3CCN(c4ncc(C(=O)NC5C(C)(C)C(Oc6ccc(C#N)c(Cl)c6)C5(C)C)cn4)CC3)CC2)C1` (stereo not drawn) [Compound 172, 2-[4-[2-[4-[5-acetyl-3-[7-(difluoromethyl)-6-(1-methylpyrazol-4-yl)-3,4-dihydro-2H-quinolin-1-yl]-6,7-dihydro-4H-pyrazolo[4,3-c]pyridin-1-yl]-1-piperidyl]-2-oxo-ethyl]-1-piperidyl]-N-[3-(3-chloro-4-cyano-phenoxy)-2,2,4,4-tetramethyl-cyclobutyl]pyrimidine-5-carboxamide] showed an IC50 (VCaP cells) of no more than 0.1 nM, an IC50 (HEK-293 cells) greater than 10000 nM and an EC50 (AR / CBP ternary complex) of less than 1 nM.
`CC(=O)N1CCc2c(c(-c3cccc4cc(-c5ccc(OCc6ncc(C(=O)NC7C(C)(C)C(Oc8ccc(C#N)c(Cl)c8)C7(C)C)cn6)nc5)ncc34)nn2C2CCOCC2)C1` (stereo not drawn) [Compound 72, 2-[[5-[8-(5-acetyl-1-tetrahydropyran-4-yl-6,7-dihydro-4H-pyrazolo[4,3-c]pyridin-3-yl)-3-isoquinolyl]-2-pyridyl]oxymethyl]-N-[3-(3-chloro-4-cyano-phenoxy)-2,2,4,4-tetramethyl-cyclobutyl]pyrimidine-5-carboxamide] showed an IC50 (VCaP cells) of 0.1 to 1 nM, an IC50 (HEK-293 cells) greater than 10000 nM and an EC50 (AR / CBP ternary complex) of less than 1 nM.
`CNC(=O)N1CCc2c(c(N3CCCc4cc(-c5cnn(C)c5)c(C(F)F)cc43)nn2C2CCN(C(=O)COCCCN3CCN(c4ncc(C(=O)NC5C(C)(C)C(Oc6ccc(C#N)c(Cl)c6)C5(C)C)cn4)CC3)CC2)C1` (stereo not drawn) [Compound 105, 1-[1-[2-[3-[4-[5-[[3-(3-chloro-4-cyano-phenoxy)-2,2,4,4-tetramethyl-cyclobutyl]carbamoyl]pyrimidin-2-yl]piperazin-1-yl]propoxy]acetyl]-4-piperidyl]-3-[7-(difluoromethyl)-6-(1-methylpyrazol-4-yl)-3,4-dihydro-2H-quinolin-1-yl]-N-methyl-6,7-dihydro-4H-pyrazolo[4,3-c]pyridine-5-carboxamide] gave an IC50 (VCaP cells) of 0.1 to 1 nM, an IC50 (HEK-293 cells) greater than 10000 nM and an EC50 (AR / CBP ternary complex) of less than 1 nM.
`CNC(=O)N1CCc2c(c(N3CCCc4cc(-c5cnn(C)c5)c(C(F)F)cc43)nn2C2CCN(C(=O)COCCOCC3CCN(c4ncc(C(=O)NC5C(C)(C)C(Oc6ccc(C#N)c(Cl)c6)C5(C)C)cn4)CC3)CC2)C1` (stereo not drawn) [Compound 104, 1-[1-[2-[2-[[1-[5-[[3-(3-chloro-4-cyano-phenoxy)-2,2,4,4-tetramethyl-cyclobutyl]carbamoyl]pyrimidin-2-yl]-4-piperidyl]methoxy]ethoxy]acetyl]-4-piperidyl]-3-[7-(difluoromethyl)-6-(1-methylpyrazol-4-yl)-3,4-dihydro-2H-quinolin-1-yl]-N-methyl-6,7-dihydro-4H-pyrazolo[4,3-c]pyridine-5-carboxamide] gave an IC50 (VCaP cells) of 0.1 to 1 nM, an IC50 (HEK-293 cells) greater than 10000 nM and an EC50 (AR / CBP ternary complex) of less than 1 nM.
Work on `CNC(=O)N1CCc2c(c(N3CCCc4cc(-c5cnn(C)c5)c(C(F)F)cc43)nn2C2CCN(C(=O)CN3CCN(c4ccc(C(=O)NC5C(C)(C)C(Oc6ccc(C#N)c(Cl)c6)C5(C)C)cc4)CC3)CC2)C1` (stereo not drawn) [Compound 41, 1-[1-[2-[4-[4-[[3-(3-chloro-4-cyano-phenoxy)-2,2,4,4-tetramethyl-cyclobutyl]carbamoyl]phenyl]piperazin-1-yl]acetyl]-4-piperidyl]-3-[7-(difluoromethyl)-6-(1-methylpyrazol-4-yl)-3,4-dihydro-2H-quinolin-1-yl]-N-methyl-6,7-dihydro-4H-pyrazolo[4,3-c]pyridine-5-carboxamide] yielded an IC50 (VCaP cells) of 0.1 to 1 nM, an IC50 (HEK-293 cells) greater than 10000 nM and an EC50 (AR / CBP ternary complex) of less than 1 nM.
In the case of `CC(=O)N1CCc2c(c(N3CCCc4cc(-c5cnn(C)c5)c(C(F)F)cc43)nn2C2CCN(CC3CCN(c4ncc(C(=O)NC5C(C)(C)C(Oc6ccc(C#N)c(Cl)c6)C5(C)C)cn4)CC3(C)C)CC2)C1` (stereo not drawn) [Compound 356, 2-[4-[[4-[5-acetyl-3-[7-(difluoromethyl)-6-(1-methylpyrazol-4-yl)-3,4-dihydro-2H-quinolin-1-yl]-6,7-dihydro-4H-pyrazolo[4,3-c]pyridin-1-yl]-1-piperidyl]methyl]-3,3-dimethyl-1-piperidyl]-N-[3-(3-chloro-4-cyano-phenoxy)-2,2,4,4-tetramethyl-cyclobutyl]pyrimidine-5-carboxamide], the IC50 (VCaP cells) is reported as no more than 0.1 nM, the IC50 (HEK-293 cells) is reported as greater than 1000 nM and the EC50 (AR / CBP ternary complex) is reported as less than 1 nM.
In the case of `CC(=O)N1CCc2c(c(-c3cccc4cc(-c5cnc(CCN(C)c6ncc(C(=O)NC7C(C)(C)C(Oc8ccc(C#N)c(Cl)c8)C7(C)C)cn6)nc5)ncc34)nn2C2CCOCC2)C1` (stereo not drawn) [Compound 74, 2-[2-[5-[8-(5-acetyl-1-tetrahydropyran-4-yl-6,7-dihydro-4H-pyrazolo[4,3-c]pyridin-3-yl)-3-isoquinolyl]pyrimidin-2-yl]ethyl-methyl-amino]-N-[3-(3-chloro-4-cyano-phenoxy)-2,2,4,4-tetramethyl-cyclobutyl]pyrimidine-5-carboxamide], the IC50 (VCaP cells) is reported as 1 to 100 nM, the IC50 (HEK-293 cells) is reported as greater than 10000 nM and the EC50 (AR / CBP ternary complex) is reported as less than 1 nM.
For `CNC(=O)N1CCc2c(c(N3CCCc4cc(-c5cnn(C)c5)c(C(F)F)cc43)nn2C2CCN(Cc3ncc(C(=O)NC4C(C)(C)C(Oc5ccc(C#N)c(Cl)c5)C4(C)C)cn3)CC2)C1` (stereo not drawn) [Compound 91, 1-[1-[[5-[[3-(3-chloro-4-cyano-phenoxy)-2,2,4,4-tetramethyl-cyclobutyl]carbamoyl]pyrimidin-2-yl]methyl]-4-piperidyl]-3-[7-(difluoromethyl)-6-(1-methylpyrazol-4-yl)-3,4-dihydro-2H-quinolin-1-yl]-N-methyl-6,7-dihydro-4H-pyrazolo[4,3-c]pyridine-5-carboxamide], the IC50 (VCaP cells) was greater than 100 nM, the IC50 (HEK-293 cells) was greater than 10000 nM and the EC50 (AR / CBP ternary complex) was greater than 100 nM.
For `CNC(=O)N1CCc2c(c(N3CCCc4cc(-c5cnn(C)c5)c(C(F)F)cc43)nn2C2CCN(C(=O)CC3CCN(c4ncc(C(=O)NC5C(C)(C)C(Oc6ccc(C#N)c(Cl)c6)C5(C)C)cn4)CC3)CC2)C1` (stereo not drawn) [Compound 101, 1-[1-[2-[1-[5-[[3-(3-chloro-4-cyano-phenoxy)-2,2,4,4-tetramethyl-cyclobutyl]carbamoyl]pyrimidin-2-yl]-4-piperidyl]acetyl]-4-piperidyl]-3-[7-(difluoromethyl)-6-(1-methylpyrazol-4-yl)-3,4-dihydro-2H-quinolin-1-yl]-N-methyl-6,7-dihydro-4H-pyrazolo[4,3-c]pyridine-5-carboxamide], the IC50 (VCaP cells) was no more than 0.1 nM, the IC50 (HEK-293 cells) was greater than 10000 nM and the EC50 (AR / CBP ternary complex) was less than 1 nM.
`CC(=O)N1CCc2c(c(N3CCCc4cc(-c5cnn(C)c5)c(C(F)F)cc43)nn2C2CCN(C(=O)OC3CCN(c4ncc(C(=O)NC5C(C)(C)C(Oc6ccc(C#N)c(Cl)c6)C5(C)C)cn4)CC3)CC2)C1` (stereo not drawn) [Compound 70, [1-[5-[[3-(3-chloro-4-cyano-phenoxy)-2,2,4,4-tetramethyl-cyclobutyl]carbamoyl]pyrimidin-2-yl]-4-piperidyl]4-[5-acetyl-3-[7-(difluoromethyl)-6-(1-methylpyrazol-4-yl)-3,4-dihydro-2H-quinolin-1-yl]-6,7-dihydro-4H-pyrazolo[4,3-c]pyridin-1-yl]piperidine-1-carboxylate] showed an IC50 (VCaP cells) of 0.1 to 1 nM, an IC50 (HEK-293 cells) greater than 10000 nM and an EC50 (AR / CBP ternary complex) of less than 1 nM.
